The values below come from patent publication US20210324379A1 (priority 2018, published 2021).

Series [1] has as its target T1, HIV protease (Human immunodeficiency virus type 1 group M subtype B, UniProt P03366). The series is classed as cell-based. The conditions noted are these: control cells within ALS mixed pool screen.
Description: Ten disease models were probed as a mixed pool across a set of 22 small molecules. […] In these experiments cells containing HIV protease, DNAseI and mCherry served as controls.
Ten ALS models were probed as a mixed pool across a set of 22 small molecules. […] In these experiments, cells containing HIV protease and DNaseI served as positive controls, and cells containing mCherry served as negative controls.
In series [2] the target is T1, HIV protease. Format: cell-based. The conditions noted are these: for rescue in 3Δ cells compared to wild type cells: Δpdr1 Δpdr3 Δsnq2 (3Δ) vs WT yeast, SC-ura galactose plates with indicated amount of inhibitor (FIG. 9).
Protocol: FIG. 5: Spot assays of Δpdr1 Δpdr3 Δsnq2 yeast expressing pAG426-GAL empty vector or pAG426-GAL-HIV protease. Strains were grown to saturation in SC-ura glucose media and serial dilutions (10-fold) of yeast were plated on SC-ura glucose or SC-ura galactose plates with or without 5 μM lopinavir added.
Cells expressing pAG426-GAL-HIV vectors were transformed into either wild type (WT) or Δpdr1 Δpdr3 Δsnq2 (3Δ) yeast which show a reduced ability to export exogenous small molecules from the cell. Cells were then grown overnight in SC-ura glucose media and spotted at 10-fold serial dilution onto SC-ura galactose plates containing the indicated amount of HIV protease inhibitor (Lopinavir or Saquinavir).
Another series deals with ALS models. Description: Pooled DNA barcoded drug screen of ALS models against 22 small molecules (FIG. 14/18). Format: cell-based, yeast. The conditions noted are these: ten ALS models as mixed pool. On the procedure: Y axis represents drugs screened at 10 uM. X axis represents protein modeled and which cell line. WT=Natural expression of drug transporters.
Another series concerns mcherry. The series is described as follows: Manual spot assay of cultures plated in 5-fold dilutions (FIG. 12B). The settings on record: consecutive 5-fold dilutions. The series is classed as cell-based. On the procedure:
(§1) Y axis represents drugs screened at 10 uM. X axis represents protein modeled and which cell line. WT=Natural expression of drug transporters. KO=No expression of multidrug transporters PDR1 and PDR3.

In a further series the target is T2, OPTN (Homo sapiens, UniProt Q96CV9).
T2 construct: expressed in transfected cells; host or cells: Saccharomyces cerevisiae, galactose-inducible expression
The series is described as above. Format: cell-based. The conditions noted are these: consecutive 5-fold dilutions. As for the experimental part:
as §1
(§2) In addition, the presently disclosed screening methods were also applied towards an entirely orthogonal set of proteins. Aggregation-prone proteins are prevalent in numerous eukaryotic life forms and are implicated in a wide range of neurodegenerative diseases. […] In a drug screen of aggregation-prone proteins against 23 drugs, two significant interactions were identified (see FIG. 12A).

A further series deals with T3, TAF15 (Homo sapiens, UniProt Q92804).
T3 construct: expressed in transfected cells; host or cells: Saccharomyces cerevisiae, galactose-inducible expression
The description is as above. Format: cell-based. The conditions noted are these: consecutive 5-fold dilutions. As for the experimental part:
as §1, §2

The target in series [3] is T1, HIV protease. Format: cell-based. The settings on record: drugs screened at 10 μM; MAGeCK analysis; WT and KO cells. As for the experimental part:
(§3) Implementation of drug screening platform for proteases of viral or bacterial origin. Y axis represents drugs screened at 10 uM. X axis represents protein modeled and which cell line. WT=Natural expression of drug transporters. KO=No expression of PDR1, PDR3 and SNQ2.
(§4) All drugs were screened at a concentration of 10 μM. Barcoded cells expressing various protein drug targets were grown up individually on agar plates containing SC-ura-leu glucose. These strains were then inoculated into SC-ura-leu with glucose liquid culture media and after overnight growth were mixed together in equal amounts to generate the DNA barcoded library. The DNA barcoded library was then inoculated into SC-ura-leu with galactose liquid culture media with and without small molecule compounds.
(§5) Amplicons for NGS were generated through a two-step PCR protocol. Barcode sequences were amplified with Taq polymerase from genomic DNA preparations with primers anchored in constant regions of the 415-Kan-BC plasmid.

The test system of series [4] is protease and kinase expressing cells. The series is described as follows: Mixed pool barcoded drug screen of protease and kinase expressing yeast (Example 4, FIG. 23, 25). The conditions noted are these: FIG. 25A/25C. The series is classed as cell-based. From the text:
FIG. 23A-FIG. 23C: Modulation of multidrug exporters enables the testing of multiple drug concentrations in parallel. FIG. 23A: Cells expressing wild type levels of multidrug exporters capture compound known to inhibit HIV protease activity. FIG. 23B: Similar to FIG. 23A, except cells are deficient in the expression of several multidrug exporters. A greater number of previously identified protease and kinase inhibitors are identified when using the drug exporter deficient background. FIG. 23C: The average degree of rescue, measured by the growth recovery of a specific yeast strain expressing a toxic protein, is higher in the knockout background as a result of higher intracellular drug concentrations. […] Furthermore, all of the hits shown are previously validated drug-target interactions. Each of the protein targets of interest expressed in the yeast cells is listed on the x-axis. […] FDR=false discovery rate, and is in relation to enrichment. […]
A single drug screen was performed on a mixed pool of yeast cells harboring various target proteins in order to identify compounds that interfere with each of the tested protein's function. […] In order to test multiple protein targets at a time, a unique DNA barcode was added to each yeast cell, such that when read using next generation sequencing, its abundance within a mixed pool can be quantified. […]

The test system of a further series is wimpy yeast. Description: Off-target toxicity detection with barcoded wimpy yeast (FIG. 25B, 25D). The series is classed as cell-based. The settings on record: mixed pool. An excerpt:
FIG. 25A-FIG. 25D: Wimpy Yeast allow for detection of drugs causing off-target toxicity in barcoded yeast pools. […] FIG. 25C and FIG. 25D: For a subset of drugs with known specific rescue of various proteases and kinases, the present screen is able to capture these effects, and a corresponding decrease in growth of any of the tested wimpy yeast was not observed. For all figures each of the protein targets of interest expressed in the yeast cells or the genes knocked out of their genome is listed on the x-axis. […] FDR=false discovery rate, FDR for FIG. 25A and FIG. 25C are in relation to enrichment while FIG. 25B and FIG. 25D are in relation to depletion.
To detect drugs that have additional pleotropic effects, which may confound the interpretation by appearing to rescue specific models, but in fact was a result of off-target effects rather than on-target enzymatic inhibition, a series of “wimpy” yeast were developed that were engineered to be sensitive to a wide variety of off-target drug toxicities (i.e., perturbations to various biological pathways). These wimpy yeast strains are engineered by using genetic mutation to selectively render the cells hypersensitive to perturbations to various core cellular pathways. […]

A further series has as its system EYFP. Format: cell-based. The settings on record: drugs screened at 10 μM; MAGeCK analysis. As for the experimental part:
as §3, §4, §5

Each structure is given as a SMILES string.

T3 sequence (Q92804 whole entry): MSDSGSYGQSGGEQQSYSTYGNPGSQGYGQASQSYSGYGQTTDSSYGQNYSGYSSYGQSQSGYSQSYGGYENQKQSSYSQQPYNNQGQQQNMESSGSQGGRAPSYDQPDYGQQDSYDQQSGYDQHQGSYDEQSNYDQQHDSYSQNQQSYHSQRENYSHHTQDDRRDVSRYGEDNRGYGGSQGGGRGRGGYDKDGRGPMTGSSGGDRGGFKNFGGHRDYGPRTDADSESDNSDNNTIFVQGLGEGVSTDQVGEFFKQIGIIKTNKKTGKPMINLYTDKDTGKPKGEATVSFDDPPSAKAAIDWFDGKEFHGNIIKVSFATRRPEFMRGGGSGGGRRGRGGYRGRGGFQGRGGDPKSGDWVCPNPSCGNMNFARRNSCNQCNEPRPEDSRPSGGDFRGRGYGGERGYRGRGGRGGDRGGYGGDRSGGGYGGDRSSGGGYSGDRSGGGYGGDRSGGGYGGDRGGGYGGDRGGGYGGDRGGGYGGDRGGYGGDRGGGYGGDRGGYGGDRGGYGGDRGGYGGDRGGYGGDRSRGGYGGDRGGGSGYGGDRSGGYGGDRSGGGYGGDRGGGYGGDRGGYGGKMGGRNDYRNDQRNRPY
T2 sequence (Q96CV9 whole entry): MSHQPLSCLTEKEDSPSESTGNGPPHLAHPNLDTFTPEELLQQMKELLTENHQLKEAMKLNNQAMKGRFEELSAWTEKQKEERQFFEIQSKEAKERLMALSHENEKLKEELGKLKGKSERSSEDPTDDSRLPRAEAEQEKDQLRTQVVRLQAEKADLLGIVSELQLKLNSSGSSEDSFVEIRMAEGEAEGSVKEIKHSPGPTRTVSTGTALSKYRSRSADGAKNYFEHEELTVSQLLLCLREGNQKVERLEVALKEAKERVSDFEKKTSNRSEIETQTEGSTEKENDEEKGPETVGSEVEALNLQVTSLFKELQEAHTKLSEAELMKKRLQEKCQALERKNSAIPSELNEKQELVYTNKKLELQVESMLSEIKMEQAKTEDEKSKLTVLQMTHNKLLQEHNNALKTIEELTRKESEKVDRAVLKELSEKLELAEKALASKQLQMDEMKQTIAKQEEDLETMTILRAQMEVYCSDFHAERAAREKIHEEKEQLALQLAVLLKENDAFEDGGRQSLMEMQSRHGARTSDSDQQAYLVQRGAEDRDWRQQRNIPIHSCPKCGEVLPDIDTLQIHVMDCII

Turning to `CC(C)CN(C[C@@H](O)[C@H](Cc1ccccc1)NC(=O)O[C@H]1CO[C@H]2OCC[C@H]21)S(=O)(=O)c1ccc(N)cc1` [Darunavir], at HIV protease [1], the “rescue of growth for cells expressing HIV protease” value was “expected rescue of growth”.

Take `Cc1cccc(C)c1OCC(=O)N[C@@H](Cc1ccccc1)[C@@H](O)C[C@H](Cc1ccccc1)NC(=O)[C@H](C(C)C)N1CCCNC1=O` [Lopinavir]: the “rescue in 3Δ cells compared to wild type cells” value at HIV protease [2] is “significant increases in rescue”. Further, at HIV protease [2] (Δpdr1 Δpdr3 Δsnq2 yeast, SC-ura galactose plates, 5 μM lopinavir (FIG. 5)), the “mitigation of toxicity of yeast expressing HIV protease” value is recorded as “toxicity can be mitigated”.

Consider `Nc1nc2ccc(OC(F)(F)F)cc2s1` [Riluzole], for which the “hit among >200 tested ALS gene-drug interactions” value with ALS models is recorded as “potential hits”. Besides, the “growth of mcherry expressing cells in the presence of drug” value in the series on mcherry is recorded as “decreased growth”. The “growth of OPTN expressing cells in the presence of drug” value on OPTN was “slight growth improvement”. For the same molecule, the “growth of TAF15 expressing cells in the presence of drug” value at TAF15 was “decreased growth”.

In the case of `CC(C)(C)NC(=O)[C@@H]1C[C@@H]2CCCC[C@@H]2CN1C[C@@H](O)[C@H](Cc1ccccc1)NC(=O)[C@H](CC(N)=O)NC(=O)c1ccc2ccccc2n1` [Saquinavir], the “rescue in 3Δ cells compared to wild type cells” value at HIV protease [2] was “significant increases in rescue”.

Turning to `COC(=O)N[C@H](C(=O)N[C@@H](Cc1ccccc1)[C@@H](O)CN(Cc1ccc(-c2ccccn2)cc1)NC(=O)[C@@H](NC(=O)OC)C(C)(C)C)C(C)(C)C` [atazanavir], on HIV protease [3], the “barcode enrichment / protein-drug interaction for cells expressing HIV protease” value is “protein-drug interactions”.

For `CC(=O)[C@]1(O)Cc2c(O)c3c(c(O)c2[C@@H](O[C@H]2C[C@H](N)[C@H](O)[C@H](C)O2)C1)C(=O)c1ccccc1C3=O` [idarubicin], the “rescue of protease and kinase expressing cells (barcode enrichment)” value in [4] is “significant rescue”. Also, the “growth of the wimpy yeast models (barcode depletion)” value in the series on wimpy yeast was “decrease in the growth”.

In the case of `CCCC(CCC)C(=O)O` [valproic acid], the “non-specific drug interaction with control-expressing cells” value with EYFP is given as “non-specific drug interactions”.
